The text below walks through data of US20230346735A1, “Nutritional Composition Comprising Carnitine and Method for Treating or Preventing an Infection in a Mammal” (priority 2020, published 2023).

Test [1] concerns TMPRSS2. Briefly: TMPRSS2 protein and mRNA in rat tissue samples. Type of test: in vivo. Particulars: exercised rats. The source says: (§1) After a week of the adaptation period, the rats were divided into eight equal groups containing seven rats each. The initial body weights of the rats were similar in all the groups (214.53 grams ± 4.67; P > 0.05).
(§2) Groups 1 and 2 were not subjected to an exercise routine. Groups 3-8 were subjected to an exercise regimen consisting of a week training period with an incremental exercise capacity described below. After the week training period the exercise regimen followed was each rat in Groups 3-8 were subjected to 6 weeks of running at 25 m/min during 45 min […]. […] These correspond to 0, 250, 500, 1000, 2000 and 4000 mg per day for humans, respectively.
(§3) To determine the protein accumulation in the liver, muscle and lung samples, a Western Blotting test was used. Each of the tissue samples of the same group were pooled, homogenized, and sonicated in lysis buffer supplemented with 1X protease and phosphatase inhibitor cocktail (#5872, Cell Signaling). Total protein content was detected with Qubit 2.0 Fluorometer according to the manufacturer’s protocol (Invitrogen, Life Technologies Corporation, Carlsbad, CA, USA). […] Protein levels were analyzed densitometrically using an image analysis system (Image J; National Institute of Health, Bethesda, MD, USA), corrected with values determined on β-actin blots and expressed as relative values compared with the control group. […]

Test [2] concerns Furin. Briefly: Furin protein and mRNA in rat tissue samples. Type of test: in vivo. The settings on record: exercised rats.
Excerpt: as §1, §2, §3

Test [3] concerns TMPRSS2. Briefly: Human study, serum ELISA, TMPRSS2. Format: in vivo. The settings on record: 2 g daily, 5 weeks, 48 hours after exercise challenge, versus placebo. As to the method: (§4) A human study was run with a total of 80 healthy male and female subjects ranging from 21 to 65 years of age, who were active (i.e. 30 minutes per day of moderate activity, 3 days per week) are randomized into two groups. […] Seventy-three subjects completed the trial and biomarker data were analyzed from the sera of the 73 completers. Sera were collected for analysis of C-Reactive Protein (CRP), ACE 1, ACE 2, TMPRSS 2, the Tumor Necrosis Factor alpha (TNF-alpha), and Furin at baseline in the beginning of the trial, at week 5 and 48 hr after an exercise challenge as described (Clinicaltrials.gov NCT04420377). The exercise challenge serves as surrogate to the inflammation stimulus.
(§5) To obtain human sera, venous blood was extracted by venipuncture of the antecubital vein using a 21-gauge syringe and collected into a 10 mL EDTA vacutainer tube (BD Vacutainer®, Becton, Dickinson and Company, Franklin Lakes, NJ) by a certified phlebotomist. […] Human ACE-1, ACE-2, TMPRSS2, Furin, CRP and TNF-alpha protein levels were assessed using commercially available ELISA kits, according the manufacturer recommendations, ACE-1 (R&D systems Inc., Minneapolis, MN, USA), ACE-2 (RayBiotech inc., Peachtree Corners, GA), TMPRSS2 (Novus Biologicals, Littleton, CO), CRP (R&D Systems Inc., Minneapolis, MN), TNF-alpha (Novus Biologicals, Littleton, CO), and Furin (Sigma Aldrich, St. Louis, MO). […]

The test system of test [4] is Furin. Nature of the test: Human study, serum ELISA, Furin. The settings on record: 2 g daily, 5 weeks, 48 hours after exercise challenge, versus placebo. Type of test: in vivo. How it is done: as §4, §5
On the technique in general: ELISA stands for enzyme-linked immunosorbent assay.

For the next test, the system named is ACE-2. Briefly: ACE-2 mRNA expression in Calu-3, RT real-time PCR. Type of test: cell-based, human. Particulars: Calu-3, 50 to 1,000 uM, 24 hr pre-treatment. How it is done:
To quantify the human gene expression, Calu-3 seeded in a 12-well plate (220,000 cells) were stimulated with 100 uM, 500 uM and 1000 uM Carnitine alone for 24 h. RNA was extracted using TRIzol (Qiagen) as per standard protocol and total RNA was reverse transcribed using SuperScript II RT (Invitrogen). Expression levels of ACE-2 and TMPRSS2 were evaluated by SYBR real-time PCR using gene-specific primers as previously reported (Ma et al., Eye 2020;34:1212). GAPDH was used as an internal normalizer. […] Fold change in expression relative to that in untreated cells was determined using the standard ddCt method.
(In general: Real-time PCR tracks product formation cycle by cycle.)

The mark [5] stands for this setting: tissues, versus exercise control.

Consider `C[N+](C)(C)C[C@H](O)CC(=O)[O-]` [L-carnitine], for which, in the test on TMPRSS2 [1] (setting [5]), the “TMPRSS2 mRNA levels” value is on record as “dose-dependent decrease”. In addition, the TMPRSS2 protein level entry in the test on TMPRSS2 [1] (western blotting) was “return to the baseline control”. Moreover, in the test on Furin [2] (setting [5]), the “Furin mRNA levels” value was “dose-dependent decrease”. In the test on Furin [2] (western blotting), the Furin protein level result is recorded as “return to the baseline control”. For the same molecule, the TMPRSS2 serum levels entry with TMPRSS2 [3] is on record as “significant decrease”. Moreover, in the test with Furin [4], the Furin serum levels entry was “significant decrease”. Moreover, the “ACE-2 mRNA levels” value in the test on ACE-2 is “statistically significant downregulation”.
